ChEMBL document CHEMBL1201862, “PubChem BioAssay data set” (2004)
Active and inactive are the calls of the source.

Assays:
[1] = alpha-synuclein stem-loop luciferase translation blockers – H4 neuroglioma cells, luminescence, confirmation (AID 1988); type: functional, cell-based
[2] = luciferase reporter signal suppression in cells – H4 neuroglioma cells, luminescence, dose response (AID 1990); type: functional, cell-based
[3] = Luminescence Cell-Based Dose Response HTS to Identify Inhibitors of 5'UTR Stem-Loop Driven Prion Protein mRNA Translation in H4 Neuroglioblastoma Cells. [Related pubchem assays: 1827 (Project Summary), 1813 (Primary HTS)]; type: functional
Cytochrome P450 3A4 = Cytochrome P450 3A4 (Homo sapiens, UniProt P08684);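 note: CYP3A4 tested as one member of a cytochrome P450 panel screen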
Sequence of Cytochrome P450 3A4 (P08684 whole entry): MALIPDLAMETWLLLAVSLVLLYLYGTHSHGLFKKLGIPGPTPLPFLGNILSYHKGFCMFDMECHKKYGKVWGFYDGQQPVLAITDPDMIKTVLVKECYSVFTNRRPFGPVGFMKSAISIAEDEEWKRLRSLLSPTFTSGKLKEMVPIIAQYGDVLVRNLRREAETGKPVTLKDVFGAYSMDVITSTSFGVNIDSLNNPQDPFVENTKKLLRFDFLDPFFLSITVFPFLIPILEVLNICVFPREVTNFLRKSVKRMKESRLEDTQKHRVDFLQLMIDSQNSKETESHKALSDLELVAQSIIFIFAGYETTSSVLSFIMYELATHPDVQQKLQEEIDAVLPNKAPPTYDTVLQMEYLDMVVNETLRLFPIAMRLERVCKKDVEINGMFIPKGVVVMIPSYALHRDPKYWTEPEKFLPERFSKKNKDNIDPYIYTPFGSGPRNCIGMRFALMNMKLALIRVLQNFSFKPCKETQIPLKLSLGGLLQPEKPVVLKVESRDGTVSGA

Cytochrome P450 2D6 = Cytochrome P450 2D6 (Homo sapiens, UniProt P10635);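 note: CYP2D6 member of a cytochrome P450 panel assay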
Sequence of Cytochrome P450 2D6 (P10635 whole entry): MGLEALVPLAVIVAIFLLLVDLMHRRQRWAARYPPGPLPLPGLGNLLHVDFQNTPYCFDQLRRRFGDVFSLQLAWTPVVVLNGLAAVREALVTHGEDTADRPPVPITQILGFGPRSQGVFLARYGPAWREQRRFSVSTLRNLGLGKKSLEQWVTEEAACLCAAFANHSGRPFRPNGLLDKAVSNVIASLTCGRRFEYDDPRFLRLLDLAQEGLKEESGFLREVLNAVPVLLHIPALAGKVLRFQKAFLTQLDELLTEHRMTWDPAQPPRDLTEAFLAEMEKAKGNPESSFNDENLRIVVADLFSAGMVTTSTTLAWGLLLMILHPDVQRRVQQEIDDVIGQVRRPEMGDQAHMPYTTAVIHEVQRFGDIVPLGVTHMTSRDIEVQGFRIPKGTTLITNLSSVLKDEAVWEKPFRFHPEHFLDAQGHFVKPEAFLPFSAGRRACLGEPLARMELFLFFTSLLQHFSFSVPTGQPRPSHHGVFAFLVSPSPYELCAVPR

Cytochrome P450 2C19 = Cytochrome P450 2C19 (Homo sapiens, UniProt P33261); test: Cytochrome panel assay with activity outcomes. Panel member name: p450-cyp2c19 Compounds with AC50 equal or less than 10 uM are considered active; type: functional
Sequence of Cytochrome P450 2C19 (P33261 whole entry): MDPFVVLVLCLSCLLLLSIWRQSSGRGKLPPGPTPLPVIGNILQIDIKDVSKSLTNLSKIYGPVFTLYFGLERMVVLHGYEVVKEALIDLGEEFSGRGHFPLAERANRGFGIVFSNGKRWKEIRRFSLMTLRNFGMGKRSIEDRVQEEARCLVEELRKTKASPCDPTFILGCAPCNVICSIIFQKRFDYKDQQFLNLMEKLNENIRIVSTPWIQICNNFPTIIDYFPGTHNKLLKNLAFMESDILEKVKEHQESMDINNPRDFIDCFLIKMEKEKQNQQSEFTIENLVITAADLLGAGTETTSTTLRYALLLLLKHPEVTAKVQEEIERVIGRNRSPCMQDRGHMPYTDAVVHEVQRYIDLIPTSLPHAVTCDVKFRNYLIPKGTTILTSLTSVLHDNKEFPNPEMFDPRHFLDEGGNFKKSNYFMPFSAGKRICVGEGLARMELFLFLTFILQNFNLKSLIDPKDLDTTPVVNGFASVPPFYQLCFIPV

[4] = NIH-3T3 fibroblast cytotoxicity, dose response, cytotoxicity control, cell-based, fluorescence, Alamar Blue, secondary assay (AID 2327); type: functional;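 note: NIH-3T3 mouse fibroblasts cultured with fluconazole at 8 µg/mL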
Cytochrome P450 1A2 = molecular target: T1, Cytochrome P450 1A2 (Homo sapiens, UniProt P05177);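 note: PubChem cytochrome P450 panel assay, CYP1A2 panel member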
T1 sequence (P05177 whole entry): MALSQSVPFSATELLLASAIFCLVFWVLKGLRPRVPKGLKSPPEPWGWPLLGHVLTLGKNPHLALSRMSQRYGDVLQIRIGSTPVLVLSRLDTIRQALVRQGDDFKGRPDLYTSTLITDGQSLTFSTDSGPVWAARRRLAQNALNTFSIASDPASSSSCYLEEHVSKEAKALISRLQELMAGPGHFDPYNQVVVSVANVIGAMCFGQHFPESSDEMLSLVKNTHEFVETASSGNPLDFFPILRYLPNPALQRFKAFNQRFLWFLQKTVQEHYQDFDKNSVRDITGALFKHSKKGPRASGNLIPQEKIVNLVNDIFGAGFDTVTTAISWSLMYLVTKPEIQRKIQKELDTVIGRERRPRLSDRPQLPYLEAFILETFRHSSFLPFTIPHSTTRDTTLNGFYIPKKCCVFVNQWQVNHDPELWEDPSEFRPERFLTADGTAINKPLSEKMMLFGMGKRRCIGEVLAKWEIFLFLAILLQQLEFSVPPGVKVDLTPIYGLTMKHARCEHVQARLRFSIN

Cytochrome P450 2C9 = Cytochrome P450 2C9 (Homo sapiens, UniProt P11712)
Sequence of Cytochrome P450 2C9 (P11712 whole entry): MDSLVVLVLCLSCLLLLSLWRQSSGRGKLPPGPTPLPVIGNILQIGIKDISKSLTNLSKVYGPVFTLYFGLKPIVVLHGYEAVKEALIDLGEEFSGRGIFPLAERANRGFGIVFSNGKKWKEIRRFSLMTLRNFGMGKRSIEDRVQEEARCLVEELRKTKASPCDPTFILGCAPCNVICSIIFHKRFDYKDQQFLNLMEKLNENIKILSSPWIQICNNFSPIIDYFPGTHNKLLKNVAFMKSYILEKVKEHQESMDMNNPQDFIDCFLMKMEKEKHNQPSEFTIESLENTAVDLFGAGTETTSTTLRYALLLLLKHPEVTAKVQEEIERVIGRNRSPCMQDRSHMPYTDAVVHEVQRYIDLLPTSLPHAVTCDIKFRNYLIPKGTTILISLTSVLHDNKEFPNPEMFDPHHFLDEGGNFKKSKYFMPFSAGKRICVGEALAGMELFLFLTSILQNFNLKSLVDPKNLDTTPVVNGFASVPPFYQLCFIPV

[5] = Luminescence Cell-Based Dose Confirmation HTS to Identify Inhibitors of Platelet Dense Granule Release. [Related pubchem assays: 1663 (Primary HTS), 1678 (Summary of Project)]; type: functional
[6] = molecular target: Luciferin 4-monooxygenase (Photinus pyralis, UniProt P08659); test: inhibition of purified Photinus pyralis luciferase – biochemical, luminescence, dose response (AID 1891)
Sequence of Luciferin 4-monooxygenase (P08659 whole entry): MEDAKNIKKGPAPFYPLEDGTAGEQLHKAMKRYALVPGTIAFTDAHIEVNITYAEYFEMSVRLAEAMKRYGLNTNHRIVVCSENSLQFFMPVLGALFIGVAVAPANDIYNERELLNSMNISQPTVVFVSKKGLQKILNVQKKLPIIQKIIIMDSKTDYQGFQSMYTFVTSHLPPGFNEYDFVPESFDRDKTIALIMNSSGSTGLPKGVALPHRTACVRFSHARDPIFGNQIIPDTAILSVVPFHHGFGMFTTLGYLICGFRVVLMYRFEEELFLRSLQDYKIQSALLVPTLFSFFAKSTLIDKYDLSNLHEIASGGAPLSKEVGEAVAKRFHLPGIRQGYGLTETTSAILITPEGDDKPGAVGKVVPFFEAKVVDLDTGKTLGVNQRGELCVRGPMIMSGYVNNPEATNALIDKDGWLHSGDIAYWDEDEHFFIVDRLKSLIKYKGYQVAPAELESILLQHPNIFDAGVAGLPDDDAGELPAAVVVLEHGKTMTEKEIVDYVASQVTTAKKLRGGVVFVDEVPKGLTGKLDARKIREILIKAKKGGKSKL

INS1 = test: INS-1E survival protection against cytokine death – cell-based, luminescence, retest, dose response (AID 449756); type: functional; conditions: Rattus norvegicus;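 note: cell death triggered by IL-1 beta plus TNF-alpha plus IFN-gamma mixture; protective hits raise ATP signal compared with cytokine alone wells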
Paired box protein Pax-8 = Paired box protein Pax-8 (Homo sapiens, UniProt Q06710); test: PAX8 transcriptional activity inhibition in RMG-I – RMG-I cells, luciferase, cherry-pick, dose response (AID 687027); type: functional, cell-based;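 note: luciferase reporter driven by Pax8 target thyroperoxidase promoter measured by SteadyGlo luminescence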
Sequence of Paired box protein Pax-8 (Q06710 whole entry): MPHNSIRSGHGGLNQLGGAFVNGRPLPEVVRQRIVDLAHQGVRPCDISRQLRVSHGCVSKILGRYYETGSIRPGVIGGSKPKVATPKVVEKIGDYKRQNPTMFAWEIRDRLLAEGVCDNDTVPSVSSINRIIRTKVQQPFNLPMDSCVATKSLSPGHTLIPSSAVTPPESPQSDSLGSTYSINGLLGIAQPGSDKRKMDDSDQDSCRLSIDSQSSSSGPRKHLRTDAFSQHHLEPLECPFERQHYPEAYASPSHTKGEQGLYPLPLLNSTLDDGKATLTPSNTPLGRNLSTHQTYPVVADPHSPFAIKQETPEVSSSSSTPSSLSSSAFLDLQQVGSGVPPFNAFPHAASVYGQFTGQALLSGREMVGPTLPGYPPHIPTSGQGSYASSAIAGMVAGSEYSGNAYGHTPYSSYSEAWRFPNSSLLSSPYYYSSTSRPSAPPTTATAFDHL

CC1C(C#N)=C(N)OC2=C1C(=O)CC(C)(C)C2 (stereo not drawn)
EC50 [1]: 19.8 µM (active)
EC50 [2]: > 120 µM (not active)
EC50 [3]: > 120 µM (not active)

CC(NC(=O)c1cccc(F)c1)C(c1cccs1)N1CCN(C)CC1 (stereo not drawn)
AC50 (Cytochrome P450 3A4): 15.8 µM (inconclusive)
AC50 (Cytochrome P450 2D6): 15.8 µM (inconclusive)
AC50 (Cytochrome P450 2C19; read-out: AC50): 31.6 µM (inconclusive)

Cc1cc(Cl)ccc1OCc1cn2cccnc2n1
EC50 [4]: > 160 µM (inactive)

Cn1cc(-c2nc3cncnc3n(Cc3ccccc3Cl)c2=O)c2ccccc21
AC50 (Cytochrome P450 3A4): 7.94 µM (inconclusive)
AC50 (Cytochrome P450 1A2): 3.16 µM (inconclusive)

COc1ccc2c(c1)O[C@@H](c1cccc(C(F)(F)F)c1)[C@H](O)C2=O
EC50 [1]: > 120 µM (not active)
EC50 [2]: > 120 µM (not active)
EC50 [3]: > 120 µM (not active)

COCCn1c(=O)c(-c2ccc(F)cc2)nc2cnc(N(C)C)nc21
AC50 (Cytochrome P450 2D6): 0.631 µM (inconclusive)
AC50 (Cytochrome P450 2C9): 12.6 µM (inconclusive)

CN(C)S(=O)(=O)c1cccc(NC(=O)CSc2nnnn2-c2ccccc2)c1
EC50 [5]: > 112 µM (not active)
EC50 [6]: > 112 µM (not active)

FC(F)(F)c1ccccc1-c1cc(NCCN2CCOCC2)ncn1
AC50 (Cytochrome P450 2D6): 39.8 µM (inconclusive)
AC50 (Cytochrome P450 1A2): 12.6 µM (inconclusive)

CCCCCC1=C2CNC(CC(C)C)(C(=O)OC)C=C2C(C)C1=O (stereo not drawn)
AC50 (Cytochrome P450 3A4): 15.8 µM (inconclusive)
AC50 (Cytochrome P450 1A2): 25.1 µM (inconclusive)
AC50 (Cytochrome P450 2C19; read-out: AC50): 6.31 µM (inconclusive)

ON(CCc1ccncc1)Cc1ccccc1
AC50 (Cytochrome P450 2D6): 6.31 µM (inconclusive)

Cc1sc(NC(=O)c2ccco2)c(C(c2cccnc2)N2CCN(C)CC2)c1C (stereo not drawn)
AC50 (Cytochrome P450 2D6): 12.6 µM (inconclusive)
AC50 (Cytochrome P450 2C9): 2.82 µM (inconclusive)

COCC(=O)N1CCC2(CC1)CN(Cc1ccccc1OC)C2
AC50 (Cytochrome P450 2C19; read-out: AC50): 39.8 µM (inconclusive)

CCOC(=O)N1CCC(NC(=O)C2CCN(S(=O)(=O)N3CCCC3)CC2)CC1
AC50 (Cytochrome P450 2C19): inconclusive

CNC(=O)NC(=O)CSc1nnc(-c2ccco2)n1Cc1ccccc1
AC50 (Cytochrome P450 3A4): 22.4 µM (inconclusive)
AC50 (Cytochrome P450 2C19; read-out: AC50): 35.5 µM (inconclusive)

CC(C)CNC(=O)COc1ccccc1[N+](=O)[O-]
EC50 [5]: 18.7 µM (active)
EC50 [6]: > 112 µM (not active)

CC(=O)NCCNc1ncnc2ccc(-c3ccccc3Cl)cc12
AC50 (Cytochrome P450 2C19; read-out: AC50): 20 µM (inconclusive)

O=C(/C=C\C=C/c1ccc2c(c1)OCO2)N1CCCCC1
AC50 (Cytochrome P450 2D6): 12.6 µM (inconclusive)

CCOc1ccc(NC(=O)N2CCC(C(N)=O)(N3CCCCC3)CC2)cc1
AC50 (Cytochrome P450 2C19; read-out: AC50): 8.91 µM (inconclusive)

Cc1cc2nc(O)c([C@H](C)C(=O)c3ccc(Cl)cc3)nc2cc1C
AC50 (Cytochrome P450 1A2): 0.501 µM (inconclusive)
AC50 (Cytochrome P450 2C19; read-out: AC50): 0.0794 µM (inconclusive)

COc1cccc(-c2noc(-c3cccnc3)n2)c1
AC50 (Cytochrome P450 2D6): 20 µM (inconclusive)

O=C1[C@@H]2[C@@H](C(=O)N1c1ccc(OCc3ccccc3)cc1)[C@@H]1c3ccccc3[C@@H]2[n+]2ccccc21
AC50 (Cytochrome P450 2D6): 3.98 µM (inconclusive)

COc1ccc(Cc2nnc(NC(=O)Cn3cnc4c3c(=O)n(C)c(=O)n4C)s2)cc1OC
AC50 (Cytochrome P450 2C9): 20 µM (inconclusive)
AC50 (Cytochrome P450 2C19; read-out: AC50): 28.2 µM (inconclusive)

Cc1ccc(Cl)cc1NC(=O)c1ccc(Cn2cc(Cl)cn2)cc1
EC50 [1]: 12.2 µM (active)
EC50 [2]: 14.4 µM (active)
EC50 [3]: 13.7 µM (active)

O=C(NCCc1csc(-c2cccnc2)n1)c1cccs1
EC50 [5]: > 112 µM (not active)
EC50 [6]: > 112 µM (not active)

COc1cccc(-c2noc(C3CCCN(C(=O)c4ccccc4OC)C3)n2)c1 (stereo not drawn)
EC50 [5]: > 112 µM (not active)
EC50 [6]: > 112 µM (not active)

O=C(Oc1ccc([N+](=O)[O-])cc1)N1CCC(N2CCCCC2)CC1
AC50 (Cytochrome P450 2D6): 39.8 µM (inconclusive)
AC50 (Cytochrome P450 1A2): 20 µM (inconclusive)

Cc1cc(NC(=O)c2c(F)cccc2F)n(-c2nc3ccccc3[nH]2)n1
AC50 (Cytochrome P450 3A4): 3.55 µM (inconclusive)
AC50 (Cytochrome P450 2D6): 39.8 µM (inconclusive)
AC50 (Cytochrome P450 2C9): 4.47 µM (inconclusive)

CCN(CC)c1nc(O)nc(N(CC)CC)n1
EC50 [1]: 44.7 µM (active)
EC50 [2]: > 120 µM (not active)
EC50 [3]: > 120 µM (not active)

COC(=O)C1(C)CN(S(=O)(=O)c2ccc(C)cc2)c2cc(OC)ccc2C1=O (stereo not drawn)
EC50 [5]: > 112 µM (not active)
EC50 [6]: > 112 µM (not active)

O=C1[C@H]2[C@H]3[C@H](O)[C@H](O)C/C(=N/OCc4ccccc4)[C@H]3CC[C@@H]2C(=O)N1Cc1ccc2c(c1)OCO2
AC50 (Cytochrome P450 2C19; read-out: AC50): 2 µM (inconclusive)

COC(=O)[C@@]1(Cc2ccc(OC)cc2)[C@H]2c3cc(C(=O)N4CCCC4)n(CCCNc4ncc(C(F)(F)F)cc4Cl)c3C[C@H]2CN1C(=O)c1ccccc1
AC50 (Cytochrome P450 3A4): 1.26 µM (inconclusive)
AC50 (Cytochrome P450 1A2): 31.6 µM (inconclusive)

CCOC(=O)c1ccc(NC(=O)CSc2nc3c(c(=O)n2C)SC(C)C3)cc1 (stereo not drawn)
EC50 [5]: > 112 µM (not active)
EC50 [6]: > 112 µM (not active)

CC(C)CN=C(S)NC1CC2CCCC(C1)N2Cc1ccco1 (stereo not drawn)
AC50 (Cytochrome P450 2C19; read-out: AC50): 39.8 µM (inconclusive)

Cc1nc2sccn2c(=O)c1S(=O)(=O)N1CCN(c2cccc(Cl)c2)CC1
EC50 [5]: > 112 µM (not active)
EC50 [6]: > 112 µM (not active)

COCOc1ccc(Br)cc1C(=O)[C@H]1O[C@H]1c1cccc(OC)c1
AC50 (Cytochrome P450 2D6): 3.16 µM (inconclusive)

CC(C)(C)c1ccc(Oc2ccc(NC(=O)c3ccccc3C(=O)O)cn2)cc1
EC50 [1]: 11.6 µM (active)
EC50 [2]: 11 µM (active)
EC50 [3]: 12 µM (active)

Cc1cc(=O)oc2cc(OCCSCCN3CCOCC3)ccc12
EC50 [5]: > 112 µM (not active)
EC50 [6]: > 112 µM (not active)

CCN(CC)c1cc(C)c2cc(NC(=O)CNC(C)=O)ccc2n1
AC50 (Cytochrome P450 2C9): 0.891 µM (inconclusive)
AC50 (Cytochrome P450 2C19): inconclusive

COc1ccc(C2C3=C(CC(C)(C)CC3=O)Oc3ncn(CC(C)C)c(=N)c32)cc1 (stereo not drawn)
AC50 (Cytochrome P450 2C9): 39.8 µM (inconclusive)
AC50 (Cytochrome P450 2C19; read-out: AC50): 39.8 µM (inconclusive)

c1ccc(-[n+]2nc(Nc3cccc4ccccc34)sc2-c2c3ccccc3cc3ccccc23)cc1
AC50 (INS1): 3.17 µM (active)

CC(C)(C)C1CCc2c(sc(NC(=O)c3cc(C4CC4)on3)c2C#N)C1 (stereo not drawn)
EC50 [5]: 23.1 µM (active)
EC50 [6]: > 112 µM (not active)

Nc1nnc(SCc2ccc(Cl)cc2)s1
EC50 [5]: > 112 µM (not active)
EC50 [6]: > 112 µM (not active)

CC#CCCCC(=O)Nc1cc(OC)nc(OC)n1
AC50 (Cytochrome P450 2D6): 15.8 µM (inconclusive)

CC(=O)OC(C)(C)/C=C/C(=O)C(C)(O)C1C(O)CC2(C)C3CC=C4C(CC(O)C(=O)C4(C)C)C3(C)C(=O)CC12C (stereo not drawn)
AC50 (Paired box protein Pax-8): < 0.26 µM (active)

CCOC(=O)Nc1ccc(C)cc1NC(=O)OCC
AC50 (Cytochrome P450 2C9): 25.1 µM (inconclusive)
AC50 (Cytochrome P450 2C19; read-out: AC50): 14.1 µM (inconclusive)

COc1ccc(CCNC(=O)COC(=O)c2cnc(C)cn2)cc1
AC50 (Cytochrome P450 3A4): 22.4 µM (inconclusive)
AC50 (Cytochrome P450 2C9): 0.00562 µM (inconclusive)
AC50 (Cytochrome P450 1A2): 25.1 µM (inconclusive)

CCNS(=O)(=O)c1ccc(NS(C)(=O)=O)cc1
AC50 (Cytochrome P450 2C9): 7.94 µM (inconclusive)
AC50 (Cytochrome P450 2C19): inconclusive

CCOC(=O)C(NCCc1ccc(F)cc1)(NC(=O)CC)C(F)(F)F (stereo not drawn)
AC50 (INS1): > 260 µM (inactive)

C[C@@H]1CN([C@@H](C)CO)C(=O)c2cc(NS(=O)(=O)c3ccccc3)ccc2O[C@@H](C)CCCCO[C@@H]1CN(C)Cc1ccc(C(F)(F)F)cc1
AC50 (Paired box protein Pax-8): 5.71 µM (active)

COc1ccc(NC(=O)Nc2ccc3c(c2)C(=O)N([C@@H](C)CO)C[C@@H](C)[C@@H](CN(C)CC2CCCCC2)OCCCC[C@@H](C)O3)cc1
AC50 (Paired box protein Pax-8): 14.5 µM (active)

CO/N=C(/CNC(=O)c1cccc(Cl)c1)c1ccc(Cl)cc1
AC50 (Cytochrome P450 2D6): 25.1 µM (inconclusive)

CC(C)CN(C)c1nc(N)c(C(=O)N=C(N)N)nc1Cl [5-(N-METHYL-N-ISOBUTYL)AMILORIDE]
AC50 (Cytochrome P450 2C19; read-out: AC50): 31.6 µM (inconclusive)
